# Entries after “also recorded” stand apart in the source; their conditions may differ.
# How the values were obtained:
# Assay type in all cases: in vivo
# C57BL/6 male mice [1] = assay: Body size and liver appearance of mice after high-fat diet and lumichrome; settings: HFD mice; for liver appearance (fatty liver): from 21th week of 32 weeks
# Source text: (§1) The serum was further analyzed by a dry chemistry auto analyzer (DRI-CHEM NX500i, Fujifilm, Tokyo, Japan) to measure the following blood biochemical values: AST, ALT and LDH. • (4) The mice in all groups were eventually sacrificed by excessive anesthesia, and both the epididymal fat and liver thereof were collected for a weight measurement, wherein the liver was divided into three parts, and a first part thereof, the first liver tissue, was further tested to determine the lipid amount in the liver by a lipid extraction kit (Chloroform-Free) (ab211044, Abeam, Cambridge, UK). • (5) A second part of the liver, the second liver tissue, was soaked in 4% formaldehyde (10% formalin) for frozen section, and the obtained liver tissue section was further subjected to (1) H/E staining and (2) Oil red O (ORO) staining for lipids (Bio-check laboratories, Taipei, Taiwan). • (6) A third part of the liver, the third liver tissue, was subjected to mRNA extraction, and the extracted mRNA was further subjected to quantitative polymerase chain reaction (qPCR). Further, (1) by qPCR with the primers of SEQ ID NO:1 and SEQ ID NO:2, the relative mRNA expression level of Acta2, which relates to liver fibrosis, in the liver in all groups was determined. (2) by qPCR with the primers of SEQ ID NO:3 and SEQ ID NO:4, the relative mRNA expression level of CD36, which affects fat uptake by liver cells, in all groups was determined; and (3) by qPCR with the primers of SEQ ID NO:5 and SEQ ID NO:6, the relative mRNA expression level of FABP1, which affects fat uptake by liver cells, in all groups was determined.
# C57BL/6 male mice [2] = assay: Epididymal fat weight, liver weight and lipid amount in the liver; settings: HFD mice
# Source text: as §1
# (§2) The present invention used a statistic and graphing software (prism ver. 6) for data analysis. The data of the numerical mean±standard deviation (SD) of the independent samples in all six groups were firstly obtained, and further subjected to One-way ANOVA for statistics. The post-hoc test was Tukey multiple comparison test. The differences between the groups were analyzed separately, and a p value less than 0.05 indicated a statistically significant difference.
# C57BL/6 male mice [3] = assay: Liver sections, H/E staining and Oil red O staining for lipid droplets; settings: HFD mice, H/E and ORO staining
# Source text: as §1, with “(2) by qPCR with the primers of SEQ ID NO:3 and SEQ ID NO:4, the relative mRNA expression level of CD36, which affects fat uptake by liver cells, in all groups was determined; and (3) by qPCR with the primers of SEQ ID NO:5 and SEQ ID NO:6, the relative mRNA expression level of FABP1, which affects fat uptake by liver cells, in all groups was determined.” left out
# C57BL/6 male mice [4] = assay: Grip strength test by grip strength meter; settings: lumichrome 0.8 or 4 mg/kg/day oral gavage
# FABP1 = assay: qPCR relative mRNA expression level of FABP1 in the liver; settings: HFD mice
# Source text: as §1, with “(2) by qPCR with the primers of SEQ ID NO:3 and SEQ ID NO:4, the relative mRNA expression level of CD36, which affects fat uptake by liver cells, in all groups was determined; and (3) by qPCR with the primers of SEQ ID NO:5 and SEQ ID NO:6, the relative mRNA expression level of FABP1, which affects fat uptake by liver cells, in all groups was determined.” left out
# Acta2 = assay: qPCR relative mRNA expression level of Acta2 in the liver; settings: HFD mice
# Source text: as §1, with “(2) by qPCR with the primers of SEQ ID NO:3 and SEQ ID NO:4, the relative mRNA expression level of CD36, which affects fat uptake by liver cells, in all groups was determined; and (3) by qPCR with the primers of SEQ ID NO:5 and SEQ ID NO:6, the relative mRNA expression level of FABP1, which affects fat uptake by liver cells, in all groups was determined.” left out
# C57BL/6 male mice [5] = assay: Weekly weight measurement (weight gain) of high-fat diet mice; settings: HFD mice, 12 weeks
# CD36 = assay: qPCR relative mRNA expression level of CD36 in the liver; settings: HFD mice
# Source text: as §1, with “(2) by qPCR with the primers of SEQ ID NO:3 and SEQ ID NO:4, the relative mRNA expression level of CD36, which affects fat uptake by liver cells, in all groups was determined; and (3) by qPCR with the primers of SEQ ID NO:5 and SEQ ID NO:6, the relative mRNA expression level of FABP1, which affects fat uptake by liver cells, in all groups was determined.” left out
# C57BL/6 male mice [6] = assay: Serum blood biochemical values AST, ALT and LDH by dry chemistry auto analyzer; settings: HFD mice
# Source text: as §1, §2
# [7] = lumichrome high dose 4 mg/kg/day oral gavage
# [8] = lumichrome low dose 0.8 mg/kg/day oral gavage
# [9] = lumichrome high dose 4 mg/kg/day oral gavage, 4 mg/kg/day
compound,measurement,setting,value
Cc1cc2nc3[nH]c(=O)[nH]c(=O)c3nc2cc1C [lumichrome],body size of mice,C57BL/6 male mice [1]; [7],more obvious efficacy to ameliorate the body size increase of mice
same,liver appearance (fatty liver),C57BL/6 male mice [1]; [7],improve the appearance of a fatty liver to regain a blood red color
same,body size of mice,C57BL/6 male mice [1]; [8],inhibit the increase of the body size of mice
same,liver appearance (fatty liver),C57BL/6 male mice [1]; [8],improve the appearance of a fatty liver and regain a red color
same,epididymal fat weight,C57BL/6 male mice [2]; [7],lower than those of the High-fat diet group
same,lipid amount in the liver,C57BL/6 male mice [2]; [7],lower than those of the High-fat diet group
same,liver weight,C57BL/6 male mice [2]; [7],lower than those of the High-fat diet group
same,epididymal fat weight,C57BL/6 male mice [2]; [8],lower than those of the High-fat diet group
same,liver weight,C57BL/6 male mice [2]; [8],lower than those of the High-fat diet group
same,lipid droplets size and accumulation in the liver,C57BL/6 male mice [3]; [9],smaller lipid droplets and less lipid droplets accumulation than those of the High-fat diet group; also recorded: significantly better than that in the HFD-lumichrome in low dose group
same,lipid droplets size and accumulation in the liver,C57BL/6 male mice [3]; [8],smaller lipid droplets and less lipid droplets accumulation than those of the High-fat diet group
same,grip strength (muscular endurance),C57BL/6 male mice [4]; HFD mice,did not cause a decrease in muscular endurance of mice
same,grip strength (muscular endurance),C57BL/6 male mice [4]; control diet mice,did not cause a decrease in muscular endurance of mice
same,relative mRNA expression level of FABP1 in the liver,FABP1; [7],less mRNA expression of CD36 and FABP1 than that of the High-fat diet group
same,relative mRNA expression level of FABP1 in the liver,FABP1; [8],less mRNA expression of CD36 and FABP1 than that of the High-fat diet group
same,relative mRNA expression level of Acta2 in the liver,Acta2; [7],less mRNA expression of Acta2 than that of the High-fat diet group
same,relative mRNA expression level of Acta2 in the liver,Acta2; [8],less mRNA expression of Acta2 than that of the High-fat diet group
same,weight gain,C57BL/6 male mice [5]; [9],ameliorate weight gain increase of mice resulting from the high-fat diet; also recorded: no longer increased greatly at and after the fourth week after providing lumichrome
same,weight gain,C57BL/6 male mice [5]; [8],ameliorate weight gain increase of mice resulting from the high-fat diet
same,relative mRNA expression level of CD36 in the liver,CD36; [7],less mRNA expression of CD36 and FABP1 than that of the High-fat diet group
same,relative mRNA expression level of CD36 in the liver,CD36; [8],less mRNA expression of CD36 and FABP1 than that of the High-fat diet group
same,ALT in the serum,C57BL/6 male mice [6]; [7],lower than those of the High-fat diet group
same,AST in the serum,C57BL/6 male mice [6]; [7],lower than those of the High-fat diet group
same,LDH in the serum,C57BL/6 male mice [6]; [7],lower than those of the High-fat diet group
same,ALT in the serum,C57BL/6 male mice [6]; [8],lower than those of the High-fat diet group
same,AST in the serum,C57BL/6 male mice [6]; [8],lower than those of the High-fat diet group
same,LDH in the serum,C57BL/6 male mice [6]; [8],lower than those of the High-fat diet group
